The text below walks through data of article PMC8807572, “The zebrafish embryo as an in vivo model for screening nanoparticle-formulated lipophilic anti-tuberculosis compounds” (Disease Models & Mechanisms, 2022).

As a reminder, the CC50 is the concentration that lowers cell viability or growth by half. What is called IC90 is the concentration needed for an effect of 90%. By IC99 is commonly meant the concentration at which the effect reaches the 99% level. By MIC90 is commonly meant an inhibitory concentration at the 90% level, which refers to growth in some studies and to a panel of isolates in others.

The structures appear in SMILES notation. In brackets after ≈: the same amount, converted by molar mass. Several values for one entry are separate records, joined by “and”; a condition that tells them apart may be missing. Equal entries are not always repeated. Where two headings read alike, the source gives them in different places.

One data set concerns VERO cells. Further details: method as in data not published. Particulars: cytotoxicity in VERO cells; ref data not published; cited from earlier work.
A further data set has as its system Mtb. On the set-up: method as in data not published. Particulars: in vitro, phenotypic HTS; ref data not published; cited from earlier work.
The test system of data set [1] is intracellular Mm in murine BMDMs. The experiment in a line: Anti-mycobacterial efficacy in M. marinum-infected BMDMs (CFU plating). The format is cell-based, Mycobacterium marinum. The conditions noted are these: for IC90: Mycobacterium marinum.
For a further data set, the system named is extracellular Mm. The data set can be described thus: MIC90 resazurin microtiter assay against extracellular M. marinum. The format is cell-based, Mycobacterium marinum. Background: Resazurin is reduced to fluorescent resorufin, in cell work by metabolically active cells.

Turning to `COc1ccc2c(ccc3oc([N+](=O)[O-])cc32)c1` [C16, 7-methoxy-2-nitronaphtho[2,1-b]furan], the CC50 with VERO cells is 0.3 µg/mL (≈ 1.23 µM). In addition, the “MIC90 against Mtb” value with Mtb was below 8 µg/mL. Besides, the IC90 in data set [1] (BMDM) was 0.013 µg/mL and 60 nM. In data set [1] (intracellular M. marinum in BMDM, calculated from the macrophage infection assay data), the IC99 was 0.03 µg/ml and 0.11 µM. Further, the MIC90 with extracellular Mm (Mycobacterium marinum) is 0.016 µg/mL and 0.07 µM; against extracellular Mm (extracellular Mm, resazurin assay), 0.016 µg/mL; in the data set on extracellular Mm (extracellular Mm, resazurin assay, read-out: MIC90), 0.07 µM.

Turning to `CO[C@H]1/C=C/O[C@@]2(C)Oc3c(C)c(O)c4c(O)c(c(/C=N/N5CCN(C)CC5)c(O)c4c3C2=O)NC(=O)/C(C)=C\C=C\[C@H](C)[C@H](O)[C@@H](C)[C@@H](O)[C@@H](C)[C@H](OC(C)=O)[C@@H]1C` [RIF, rifampicin], in data set [1], the IC99 is 1.97 µg/ml and 2.41 µM. Moreover, the IC90 in data set [1] (intracellular M. marinum in BMDM, calculated from the macrophage infection assay data, read-out: IC90) was 0.878 µg/mL and 1.07 µM. In addition, the MIC90 in the data set with extracellular Mm (Mycobacterium marinum, extracellular Mm, resazurin assay, read-out: MIC90) is 0.1 µg/mL and 0.12 µM.
